The test system of data set [1] is human growth plate cartilage. Type of data set: cell-based. Conditions: both, 24 h, 1000 nM. The procedure:
Biopsies from the proximal tibia and distal femur growth plates were collected in 5 pubertal children (3 boys and 2 girls) undergoing epiphyseal surgery for different medical conditions (4 patients with constitutional tall stature and 1 patient with leg length discrepancy). Biopsies were cut into thin slices under microscope and cultured for 24 hrs in the presence of 1000 nM CT (bortezomib). After fixation and sectioning, growth plates were analyzed using the TUNEL assay to determine the levels of chondrocyte apoptosis. […] CT (bortezomib) caused a significant increase in apoptosis (22.2±4.4% TUNEL positive cells vs. 6.3±1.8% in control; **p≦0.01, n=5 patients), which was mainly observed in stem-like and early proliferative chondrocytes. Our confirmation that human growth plate cartilage is also highly sensitive to bortezomib-induced cytotoxicity is of considerable clinical importance.

Data set [2] has as its system growth plate. From the text:
The proteasome inhibitors (PIs), including bortezomib (Velcade™, PS-341), belong to another novel and promising group of CT that has past phase I clinical trials (Blaney, Bernstein et al. 2004) and are now under phase II clinical trials in pediatric cancers. However, secondary effects on normal bystander tissues of primary life saving modalities are so far unknown.

The subject of data set [3] is neuroblastoma (SK-N-BE(2)) tumor xenografts. Kind of data set: Doubling time of tumors in neuroblastoma xenografts. In kind it is in vivo, human. Conditions: bortezomib 0.8 mg/kg i.v. days 1, 4, 8, 11; p<0.05 vs vehicle. For orientation: A xenograft is tissue or cells of one species grown in another, often human tumour cells in immunodeficient mice.
In data set [4] the test system is chondrocytes of fetal rat metatarsal bones. Description: TUNEL apoptosis in growth plate sections of cultured rat metatarsal bones. Type of data set: cell-based. Conditions: bortezomib 1-1000 nM, 12-day culture, p<0.001 vs control. The procedure: (§1) The three middle metatarsal bone rudiments were dissected out from the paws of 20-day-old embryos (E20) (De Luca, Barnes et al. 2001). After dissection, bones were transferred to 24-well plates, one bone per well and cultured in 0.5 ml phenol-red MEM medium supplemented with 0.2% endotoxin-free fraction BSA, […] β-glycerophosphate, 0.05 mg/ml ascorbic acid and 100 μg/ml penicillin/streptomycin at 37° C. under 5% CO2 in humidified atmosphere. Medium was changed every 2-3 days. Images were captured at days 0, 2, 5, 7, 9 and 12 of culture, using a Hamamatsu C4742-95 digital camera mounted on a Nikon SMZ-U microscope. The Image-Pro plus™ (Media Cybernetics, USA) software was used to measure longitudinal growth. Metatarsal bone growth is expressed as a percentage of the length at the day of dissection (regarded as day 0). Treatment with CT (bortezomib), dexamethasone and/or HNG (S14G) was started 2-4 hours after dissection. All isolated bones were pooled and then randomly divided into the different treatment groups (4 to 6 bones per group). Each experiment was repeated at least 3 times.
CT (bortezomib) is a cytotoxic drug known to cause critical alterations in cells/tissues and disturb the cellular homeostasis. […] Apoptosis was analyzed in whole growth plate sections of 12-day cultured rat metatarsal bones (perichondrium excluded) by applying the TUNEL technique to detect DNA fragmentation.

The subject of data set [5] is growth plate chondrocytes. Kind of data set: TUNEL chondrocyte apoptosis in growth plate sections of C57B and NMRI mice. In kind it is in vivo. Particulars: bortezomib 1 mg/kg i.p.; day 13 (48 hrs post treatment); each strain, p<0.001 vs vehicle. The procedure:
(§2) Normal 5-week old male C57B and NMRI (B&K Universal, Sollentuna, Sweden) mice were housed one per cage in our animal care facility under a 12-h light, 12-h dark schedule with water ad libitum. After an adaptation period, each strain of mice were divided into two groups according to their body weight and were weight-matched into pairs to either receive 1 cycle intra peritoneal (i.p) injections of CT (bortezomib; Millennium Pharmaceuticals, USA, 1 mg/kg of body weight; 2 injections/week, 2 weeks treatment) or saline (vehicle). Body weight, food and general physical status was recorded daily during the first 20 days, and each vehicle-treated mouse was pair-fed to corresponding weight-matched CT (bortezomib)-treated mice. […] X-ray analyses where performed approximately every second week from start of treatment (represents time-point zero) to time of killing (day 56).
Cell death is a well known and desirable phenomenon in the anti-cancer therapy. However, side-effects of the treatment in other tissues and cells is not uncommon. To further investigate the underlying mechanism(s) to the observed growth impairment in vivo we studied apoptosis (by the TUNEL method). Apoptosis was quantified in paraffin embedded growth plate sections of CT (bortezomib) and vehicle treated C57B and NMRI mice sacrificed on day 13 of the study (48 hrs post treatment).

The subject of data set [6] is C57B and NMRI mice. Description: Bone length (X-ray) and body weight in normal C57B and NMRI mice. Particulars: for bone length (femur, X-ray): bortezomib 1 mg/kg i.p., 1 cycle. Type of data set: in vivo. The procedure: as §2
FIG. 5 illustrates a schematic representation of the experimental design for the in vivo studies in C57B and NMRI mice. Both strains of mice were housed one per cage with water ad libitum. At start of treatment, mice were randomized into two groups based on their body weight and were weight-matched into pairs to either receive 1 cycle of intraperitoneal (i.p.) injected CT (bortezomib, 1 mg/kg) or vehicle at the indicated time-points; day 1, 4, 8 and 11. Each vehicle treated mouse was pair-fed to a corresponding weight-matched CT (bortezomib) treated mouse. Mice were killed (t) on day 13 (48 hrs post treatment) or on day 56 (45 days post treatment). X-ray analyses where performed approximately every second week from start of treatment (represents time-point zero) to time of killing (day 13 or 56). Bone lengths (mm) of femur were analyzed in vehicle- and CT (bortezomib) treated animals. Each group included 7-10 mice.
Body weight was measured in both strains of mice every day until day 20 after start of treatment, and once per week thereafter. […] The vertical hatched line in FIGS. 6A and B indicates the last injection on day 11. In light of the growth inhibiting effect on metatarsal bones in vitro and the association of many other cytotoxic drugs, the effect on bone growth was investigated in vivo. Normal 5-week old male C57B and NMRI mice were weigh-matched into pairs to either receive 1 cycle intra peritoneal (i.p) injections of CT (bortezomib) at a clinical relevant dose (1mg/kg of body weight; 2 injections/week, 2 weeks treatment) or saline (vehicle). One group were killed 48 hrs after last injection (day 13) to study the direct effects on bone growth and the growth plate chondrocytes. The second group of animals were followed another 45 days without any treatment and then killed (day 56, 45 days post treatment) to look at the long-term effect and if there was any catch-up growth. […]

In data set [7] the test system is fetal rat metatarsal bones. Description: Longitudinal growth of cultured fetal rat metatarsal bones. In kind it is cell-based. The procedure:
as §1
The data shown in FIG. 2A indicates novel growth promoting/protective effects of humanin analog HNG (S14G) on longitudinal bone growth in cultured fetal rat metatarsal bones. […] Briefly, fetal rat metatarsal bones were pre-treated with different concentrations (mentioned in the figure) of HNG (S14G), 30 min prior to addition of Dexa. […] (n=4-6 bones/group)
CT (bortezomib) is a cytotoxic drug known to cause critical alterations in cells/tissues and disturb the cellular homeostasis. To test the effect of CT (bortezomib) on chondocytes and longitudinal bone growth, the established in vitro model of fetal rat metatarsal bones was used. These bones were collected as described in material and methods, cultured and treated with different concentrations of CT (bortezomib) under sterile conditions for up to 12 days. […] Apoptosis was analyzed in whole growth plate sections of 12-day cultured rat metatarsal bones (perichondrium excluded) by applying the TUNEL technique to detect DNA fragmentation.
In an attempt to block and prevent the negative effects on growth after CT (bortezomib)-treatment, recently discovered humanin analog HNG (S14G) was tested in vitro in fetal rat metatarsal bones.

For data set [8], the system named is apoptosis inducing factor (AIF) and BAX. Kind of data set: Western immunoblotting of pro-apoptotic proteins in C5.18 chondrocytic cell line. In kind it is cell-based, rat. Particulars: 1000 nM bortezomib, 6hrs. The procedure:
Western immunoblotting to study protein expression was performed in the rat C5.18 chondrocytic cell line after treatment with 1000 nM CT (bortezomib) or 100 nM humanin analog HNG (S14G)/1000 nM CT (bortezomib (Btz)) for 6hrs. […] By adding humanin analog HNG (S14G), the up-regulation and activation of the two pro-apoptotic proteins were suppressed. […] As an internal control the house-keeping gene, GAPDH (35 kDa) was used. The experiment was repeated twice.
(In general: Immunoblotting shows a protein as a band on a membrane.)

Compound `CC(C)C[C@H](NC(=O)[C@H](Cc1ccccc1)NC(=O)c1cnccn1)B(O)O` [CT (bortezomib), bortezomib] had a TUNEL positive cells in data set [1] of 22.2±4.4%. For the same compound, the “effect on growth plate and growth” value in data set [2] is “permanent growth retardation and chondrocyte cell death”. Besides, the tumor doubling time result in data set [3] is listed as “significant reduction in tumor doubling time”. The “chondrocyte apoptosis (TUNEL)” value in data set [4] was “significant dose-dependent increase in chondrocyte apoptosis”; in data set [5] it was “significant induction of chondrocyte apoptosis”. For the same compound, the body weight result in data set [6] (C57BL mice, bortezomib 1 mg/kg i.p. days 1, 4, 8, 11, vs vehicle) is “no difference in body weight”; in data set [6] (NMRI mice, bortezomib 1 mg/kg i.p. days 1, 4, 8, 11, day 36 until day 56, vs vehicle), “significant difference in body weight”. Also, the “bone length (femur, X-ray)” value in data set [6] (after 45 day follow-up (day 56), p<0.001) was “still significantly shorter”; in data set [6] (day 13, both strains, p<0.001 vs vehicle) it was “significantly shorter”. The longitudinal bone growth entry in data set [7] (bortezomib 50 nM or higher, from day 2 throughout 12 days, p<0.001 vs control) is reported as “Significant growth suppression”; in data set [7] (bortezomib 1000 nM for only 24 hrs, then control medium up to 12 days), “permanent growth arrest”; in data set [7] (bortezomib, all concentrations tested (25-100 nM)) it was “completley abolished growth”. In addition, the “expression of pro-apoptotic proteins AIF and BAX” value in data set [8] is “induce up-regulation and activation”.

These data come from US20130053323A1, “METHODS AND USE RELATED TO HUMANIN AND HUMANIN-LIKE PEPTIDES” (priority 2009, published 2013).
